According to patent publication US20230057984A1, “NORMALIZATION OF CULTURE OF CORNEAL ENDOTHELIAL CELLS” (KYOTO PREFECTURAL PUBLIC UNIVERSITY CORPORATION, priority 2011, published 2023):

System: Cynomolgus monkey corneal endothelial cells
Assay: Western blot of Na+/K+-ATPase and ZO-1 in monkey corneal endothelial cells (Example 3)
Format: cell-based
Conditions: monkey CEC treated with SB431542 vs fibroblast phenotype control
Method: Next, reaction was allowed for 1 hour at a room temperature with ALEXA FLUOR 488 (INVITROGEN (catalog number: A21206)) and ALEXA FLUOR 594 (INVITROGEN (catalog number: A21203)), diluted with TBS-T by 1,000 fold. After washing with PBS, the sample was encapsulated with VECTASHIELD WITH DAPI (VECTOR LABORATORIES (catalog number: 94010)) onto a slide, followed by observation through confocal microscope (Leica). • Western blot technique: protein extracted by RIPA buffer was electrophoresed with 7.5% polyacrylamide. The separated protein was transferred to a PVDF film (PALL LIFE SCIENCE (catalog number: EH-2222)). […] After washing, bands were detected using an ECL-ADVAVCE Western Blotting Detection Kit (GE healthcare Japan (catalog number: RPN2135V)). […]
P-40 (Nacalai Tesque, catalog number: 23640-94), 0.5% sodium deoxycholate (Nacalai Tesque, catalog number:10712-12), and 0.1% SDS (Nacalai Tesque, catalog number:31607-65)). Thus obtained cell lysate was centrifuged (15,000 rpm, 10 minutes), the supernatant thereof was collected, and the protein was quantitated using a BCA PROTEIN ASSAY KIT (PIERCE, catalog number: 23227). […]

In the case of `NC(=O)c1ccc(-c2nc(-c3ccc4c(c3)OCO4)c(-c3ccccn3)[nH]2)cc1` [SB431542], the “expression of Na+/K+-ATPase and ZO-1, protein level (Western blot)” value was “strongly enhanced”.
